Source: US20240327356A1, “PYRIMIDINE BASED RAS MODULATORS AND USES THEREOF” (QUANTA THERAPEUTICS, INC., priority 2021, published 2024)

Assays:
[1] = target: KRAS^G12D-FMe.RAF1^RBDCRD complex (Homo sapiens, UniProt P01116, G12D); test: SHG assay: binding to bilayer-tethered KRAS G12D/RAF1 complex; settings: GppNHp-loaded complex on PS bilayer; compound 0.027-40 μM, monitored over 60 min
Procedure: Compounds suspected to carry intrinsic SHG activity were tested in the presence of an unlabeled KRAS^G12D-FMe.RAF1^RBDCRD complex to monitor binding. PS bilayer was prepared from PS-enriched small unilamellar vesicles (SUVs) purchased from Biodesy, Inc. The concentrated SUVs were diluted in TBS buffer containing 5 mM CaCl2 and incubated on a glass-bottom 384-well Biodesy Delta™ assay plate to allow bilayer formation. Equimolar amounts of GppNHp-loaded KRAS^G12D-FMe and RAF1^RBDCRD were mixed and incubated together on PS bilayer overnight at 4° C. The following day, untethered protein was removed by washing with assay buffer (20 mM Hepes, pH 7.4, […], 1 mM TCEP, 5 μM GppNHp). The SHG signal produced by bilayer-tethered complex was ready using the Biodesy Delta™ platform where each well was pulsed with an 800 nm laser and the resulting second harmonic signal intensity at 400 nm was collected. Compounds were diluted into the same assay buffer and applied to the complex at a final concentration range spanning 0.027 μM-40 μM and the SHG intensity of each well was monitored at 5 minute intervals over a 60 minute time period.

[2] = test system: Phospho-ERK (Thr202/Tyr204) in MiaPaCa-2 cells; test: pERK inhibition in MiaPaca-2 cell line (HTRF); format: cell-based; settings: Homo sapiens, MIA PaCa-2, 1 hour incubation with compound
Procedure: MiaPaCa-2 cells (ATCC CRL-1420) were cultured in high glucose DMEM (Gibco 11965092) containing 10% fetal bovine serum (Gibco 1993708) and 1× Penicillin/Streptomycin, at 37° C. in a humid atmosphere of 5% CO2 in the air. Cells were plated in tissue-culture treated 96-well plates at a density of 10,000 cells/well and allowed to attach for 16 hours. The medium was then removed, and diluted compounds were added in a final concentration of 0.5% DMSO. After 1 hour of incubation, cells were lysed by the lysis buffer supplied with the Phospho-ERK (Thr202/Tyr204) cellular HTRF kit (Cisbio 64ERKPEH) and transferred to a 384-well low-volume white plate (PerkinElmer 6008280). The cell lysates were treated with the detection reagents supplied with the HTRF kit for 4 hours at ambient temperature in darkness. Two fluorescence intensities at the wavelengths (665 and 620 nm) were measured by the Envision plate reader (Perkin Elmer), and the data were processed and fitted to a 4-parameter logistic model for IC50 calculation (GraphPad Prism 9).

Row | SMILES | EC50 [1] [µM] | IC50 [2] [µM]
1 | NCC1CCN(c2nc(-c3ccc(Cl)c(C(F)(F)F)c3)ncc2[N+](=O)[O-])C1 (centres unmarked) [Compound 56] | 10 to 50 | 10 to 50
2 | N#CC1(C(=O)NCc2cnc(-c3ccc(Cl)c(C(F)(F)F)c3)nc2C2=CCC(N)CC2)CC1 (centres unmarked) [Compound 58, N-[[4-(4-aminocyclohexen-1-yl)-2-[4-chloro-3-(trifluoromethyl)phenyl]pyrimidin-5-yl]methyl]-1-cyano-cyclopropanecarboxamide] | 1 to 10 | 1 to 10
3 | COC(=O)NCc1cnc(-c2ccc(C)c(Cl)c2)nc1N1CCC(CN)C1 (centres unmarked) [Compound 60] | 1 to 10 | 1 to 10
4 | N[C@H]1CN(c2nc(-c3ccc(Cl)c(C(F)(F)F)c3)ncc2C2=CCNC2)C[C@@H]1O [Compound 61] | 1 to 10 | 1 to 10
5 | Cc1ccc(-c2ncc(CNC(=O)C3(C#N)CC3)c(N3CCC(F)(CN)C3)n2)cc1Cl (centres unmarked) [Compound 63] | 1 to 10 | 0.1 to 1
6 | Cc1ccc(-c2ncc(CNC(=O)C3(C#N)CC3)c(N3CC[C@H](N)C3)n2)cc1Cl [Compound 65] | 1 to 10 | 0.1 to 1
7 | N#CC1(C(=O)NCc2cnc(-c3ccc(Cl)c(C(F)(F)F)c3)nc2N2CCC[C@@H]2CN)CC1 [Compound 66] | 1 to 10 | 1 to 10
8 | Cc1ccc(-c2ncc(CNC(=O)C3(C#N)CC3)c(N3CCC[C@H]3CN)n2)cc1Cl [Compound 68] | 10 to 50 | 1 to 10
9 | CN1CCN(c2nc(-c3ccc(Cl)c(C(F)(F)F)c3)ncc2CNC(=O)C2(C#N)CC2)CC1 [Compound 71] | 1 to 10 | 1 to 10
10 | N#CC1(C(=O)NCc2cnc(-c3ccc(Cl)c(C(F)(F)F)c3)nc2OCCCN)CC1 [Compound 74] | 1 to 10 | 1 to 10
11 | N#CC1(C(=O)NCc2cnc(-c3ccc(C(F)(F)F)c(Cl)c3)nc2N2CCC(CN)C2)CC1 (centres unmarked) [Compound 75] | 1 to 10 | 1 to 10
12 | C=C(F)C(=O)NCc1cnc(-c2ccc(C)c(Cl)c2)nc1N1CCC(CN)C1 (centres unmarked) [Compound 76] | 1 to 10 | 1 to 10
13 | Cc1ccc(-c2ncc(CNC(=O)C3(C#N)CC3)c(C3=CCC(N)CC3)n2)cc1Cl (centres unmarked) [Compound 77] | 1 to 10 | 1 to 10
14 | Cc1ccc(-c2ncc(CNC(=O)C3(C)COC3)c(N3CCC(CN)C3)n2)cc1Cl (centres unmarked) [Compound 80] | 10 to 50 | 1 to 10
15 | Cc1ccc(-c2ncc(CNC(=O)C3(N)CC3)c(N3CCC(CN)C3)n2)cc1Cl (centres unmarked) [Compound 81] | 10 to 50 | 1 to 10
16 | Cc1ccc(-c2ncc(CNS(=O)(=O)C3CC3)c(N3CCC(CN)C3)n2)cc1Cl (centres unmarked) [Compound 82] | 1 to 10 | 1 to 10
17 | C=C(C)C(=O)NCc1cnc(-c2ccc(C)c(Cl)c2)nc1N1CCC(CN)C1 (centres unmarked) [Compound 88] | 1 to 10 | 1 to 10
18 | Cc1ccc(-c2ncc(CNC(=O)C3(F)CC3)c(OC3CCN(C)C3)n2)cc1Cl (centres unmarked) [Compound 89] | 10 to 50 | 1 to 10
19 | Cc1ccc(-c2ncc(CNC(=O)C3(F)CC3)c(N3CCC(N)CC3)n2)cc1Cl [Compound 92] | 1 to 10 | 1 to 10
20 | Cc1ccc(-c2ncc(CNC(=O)C3(F)CC3)c(N3CC[C@H](CN)C3)n2)cc1Cl [Compound 93] | 1 to 10 | 1 to 10
21 | Cc1ccc(-c2ncc(CNS(=O)(=O)c3ccccc3)c(N3CCC(CN)C3)n2)cc1Cl (centres unmarked) [Compound 94] | 1 to 10 | 1 to 10
22 | Cc1ccc(-c2ncc(CNC(=O)C3(O)CC3)c(N3CCC(CN)C3)n2)cc1Cl (centres unmarked) [Compound 96] | 1 to 10 | 1 to 10
23 | Cc1ccc(-c2ncc(CN(C)C(=O)C3(F)CC3)c(N3CCNCC3)n2)cc1Cl [Compound 98] | 1 to 10 | 1 to 10
24 | Cc1ccc(-c2ncc(CNC(=O)C3(F)CC3)c(N3CC(CN)C3)n2)cc1Cl [Compound 101] | 10 to 50 | 1 to 10
25 | Cc1ccc(-c2ncc(CNC(=O)C3(F)CNC3)c(N3CCC(CN)C3)n2)cc1Cl (centres unmarked) [Compound 102] | 1 to 10 | 1 to 10
